According to US11542273B2, “Amide compound having bet proteolysis-inducing action and medicinal application thereof” (MITSUBISHI TANABE PHARMA CORPORATION, priority 2018, dated 2023):
Like-named read-outs stand apart in the source and are kept apart here. One block for each compound: values may come before it.

Key:
BRD4 bromodomain 1 = BRD4 bromodomain 1 (Homo sapiens (Human), UniProt O60885); experiment: Inhibitory action on binding of BRD4 protein and ligand, Test Method 1 (TR-FRET, BRD4 bromodomain 1 TR-FRET Assay Kit); conditions: Test Method 1, BRD4 bromodomain 1 and ligand
Experimental: The inhibitory action of the compound of the present invention on the binding of BRD4 protein and a ligand thereof was evaluated by the time-resolved fluorescence resonance energy transfer (TR-FRET) method using BRD4 bromodomain 1 TR-FRET Assay Kit (Cayman). In this experiment, (+)-JQ1 known to have an inhibitory activity on the binding of BRD4 protein and a ligand therefor was used as a positive control drug. A test compound dissolved in DMSO was diluted with TR-FRET Assay Buffer, added to a 384 well black plate, BRD4 bromodomain 1 Europium Chelete was further added and the cells were incubated at room temperature for 15 min. Thereafter, BRD4 bromodomain 1 Ligand/APC Acceptor Mixture was added and the cells were incubated at room temperature for 1 hr. The binding amount of the BRD4 protein and ligand was measured as fluorescence intensity (excitation: 340 nm/emission: 620 nm and excitation: 340 nm/emission: 670 nm).
It was calculated from the straight line connecting the degradation rate at two points enclosing the 50% fluorescence intensity and the compound concentration.

[1] = tested on: human uterine sarcoma MES-SA cell; experiment: Cytotoxic action on cancer cells (WST-8, 96 hr); format: cell-based; conditions: 96 hr culture
Summary of the method: (§1)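 IC50 from linear interpolation of the two concentrations flanking 50% survival; viability by WST-8 relative to untreated wells. Cells grown in 10% FBS/RPMI1640, 37° C, 5% CO2, compound added after overnight attachment.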

[2] = tested on: human T-cell leukemia Jurkat cells; experiment: Cytotoxic action on cancer cells (WST-8, 96 hr); format: cell-based; conditions: 96 hr culture
Summary of the method: as §1

[3] = tested on: human multiple myeloma MM.1S cell; experiment: Cytotoxic action on cancer cells (WST-8, 96 hr); format: cell-based; conditions: MM1.S, MM.1S cells, 96 hr culture
Summary of the method: as §1

[4] = tested on: human pancreatic cancer AsPC-1 cell; experiment: Cytotoxic action on cancer cells (WST-8, 96 hr); format: cell-based; conditions: ASPC1, AsPC-1 cells, 96 hr culture
Summary of the method: as §1

[5] = tested on: human chronic myeloid leukemia K562 cell; experiment: Cytotoxic action on cancer cells (WST-8, 96 hr); format: cell-based; conditions: 96 hr culture
Summary of the method: as §1

[6] = tested on: human gastric cancer SNU-16 cell; experiment: Cytotoxic action on cancer cells (WST-8, 96 hr); format: cell-based; conditions: SNU-16 cells, 96 hr culture
Summary of the method: as §1

[7] = tested on: human ovarian cancer A2780 cell; experiment: Cytotoxic action on cancer cells (WST-8, 96 hr); format: cell-based; conditions: 96 hr culture
Summary of the method: as §1

[8] = tested on: human breast cancer ZR-75-1 cell; experiment: Cytotoxic action on cancer cells (WST-8, 96 hr); format: cell-based; conditions: ZR-75-1 cells, 96 hr culture
Summary of the method: as §1

[9] = tested on: human castration-resistant prostate cancer PC-3 cell; experiment: Cytotoxic action on cancer cells (WST-8, 96 hr); format: cell-based; conditions: PC-3 cells (printed P0-3 in table), 96 hr culture
Summary of the method: as §1

[10] = tested on: human colorectal cancer HCT116 cell; experiment: Cytotoxic action on cancer cells (WST-8, 96 hr); format: cell-based; conditions: HCT-116, 96 hr culture
Summary of the method: as §1

[11] = tested on: human Burkitt lymphoma Raji cell; experiment: Cytotoxic action on cancer cells (WST-8, 96 hr); format: cell-based; conditions: 96 hr culture
Summary of the method: as §1

[12] = tested on: human acute myeloid leukemia MV-4-11 cell; experiment: Cytotoxic action on cancer cells (WST-8, 96 hr); format: cell-based; conditions: MV4-11, MV-4-11 cells, 96 hr culture
Summary of the method: as §1

[13] = tested on: human glioma U-87 MG cell; experiment: Cytotoxic action on cancer cells (WST-8, 96 hr); format: cell-based; conditions: U-87 MG cells, 96 hr culture
Summary of the method: as §1

[14] = tested on: human prostate cancer LNCaP cells; experiment: Cytotoxic action on cancer cells (WST-8, 96 hr); format: cell-based; conditions: read-out: LNCaP cytotoxic activity: IC50
Summary of the method: as §1

[15] = tested on: human bladder cancer 5637 cell; experiment: Cytotoxic action on cancer cells (WST-8, 96 hr); format: cell-based; conditions: 5637 cells, 96 hr culture
Summary of the method: as §1

[16] = tested on: human large cell lung cancer NCI-H460 cell; experiment: Cytotoxic action on cancer cells (WST-8, 96 hr); format: cell-based; conditions: 96 hr culture
Summary of the method: as §1

[17] = tested on: human triple negative breast cancer MDA-MB-231 cell; experiment: Cytotoxic action on cancer cells (WST-8, 96 hr); format: cell-based; conditions: MDA-MB-231 cells, 96 hr culture
Summary of the method: as §1

[18] = tested on: human diffuse large B-cell lymphoma SU-DHL-6 cell; experiment: Cytotoxic action on cancer cells (WST-8, 96 hr); format: cell-based; conditions: SU-DHL-6 cells, 96 hr culture
Summary of the method: as §1

[19] = tested on: human small cell lung cancer NCI-H82 cell; experiment: Cytotoxic action on cancer cells (WST-8, 96 hr); format: cell-based; conditions: 96 hr culture
Summary of the method: as §1

[20] = tested on: human non-small cell lung cancer NCI-H1975 cell; experiment: Cytotoxic action on cancer cells (WST-8, 96 hr); format: cell-based; conditions: 96 hr culture
Summary of the method: as §1

[21] = tested on: human liver cancer Hep G2 cell; experiment: Cytotoxic action on cancer cells (WST-8, 96 hr); format: cell-based; conditions: HepG2, 96 hr culture
Summary of the method: as §1

BRD4 protein = BRD4 protein (Homo sapiens (Human), UniProt O60885); experiment: BRD4 protein degradation inducing action in cancer cells (immunofluorescence, Operetta); format: cell-based; conditions: LNCaP cells, 6 hr treatment, fluorescence intensity
Summary of the method: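 DC50 = compound concentration reducing BRD4 immunofluorescence to 50% of untreated cells, interpolated between the two flanking concentrations. Treatment: LNCaP cells, 6 hr, 10% FBS/RPMI1640, 37° C. Cells were then fixed, permeabilized, stained with anti-BRD4 and Alexa Fluor 488 or 546 secondaries, and imaged.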

BRD4-1 (GST) = BRD4-1 (GST) (Homo sapiens (Human), UniProt O60885); experiment: Inhibitory action on binding of BRD4 protein and acetylated histone H4, Test Method 2 (TR-FRET); conditions: Test Method 2, BRD4-1 (GST) and acetylated histone H4, TR-FRET
Experimental: The inhibitory action of the compound of the present invention on the binding of BRD4 protein and a ligand thereof (acetylated histone H4) was evaluated by the time-resolved fluorescence resonance energy transfer (TR-FRET) method using EPIgeneous™ Binding Domain Kit A (Cisbio), BRD4-1 (GST) (Reaction Biology Corp) and [Lys(Ac)5/8/12/16]-Histone H4(1-21)-GGK (Biotin) (Eurogentec). In this experiment, (+)-JQ1 known to have an inhibitory activity on the binding of BRD4 protein and acetylated histone H4 therefor was used as a positive control drug. A test compound dissolved DMSO was diluted with attached Diluent Buffer, added to a 384 well white plate, and BRD4-1 (GST) and [Lys(Ac)5/8/12/16]-Histone H4(1-21)-GGK (Biotin) were further added. Thereafter, Streptavidin-d2 conjugate and Anti-GST-Eu^3+ Cryptate Conjugate were added and the cells were incubated at room temperature for 3 hr. The binding amount of the BRD4 protein and acetylated histone H4 was measured as the fluorescence intensity (excitation: 314 nm/emission: 620 nm and excitation: 314 nm/emission: 665 nm). […] It was calculated from the straight line connecting the degradation rate at two points enclosing the 50% fluorescence intensity and the compound concentration.

- IC50 (BRD4 bromodomain 1): 82 nM
- DC50 (BRD4 protein): 0.41 nM
Compound: COC(=O)C[C@@H]1N=C(c2ccc(-c3ccc(OCCOCC(=O)N[C@H](C(=O)N4C[C@H](O)C[C@H]4C(=O)N[C@@H](C)c4ccc(-c5scnc5C)cc4)C(C)(C)C)c(C#N)c3)cc2)c2c(sc(C)c2C)-n2c(C)nnc21 [Example 8, methyl [(6S)-4-(3′-cyano-4′-{2-[2-({(2S)-1-[(2S,4R)-4-hydroxy-2-({(1S)-1-[4-(4-methyl-1,3-thiazol-5-yl)phenyl]ethyl}carbamoyl)pyrrolidin-1-yl]-3,3-dimethyl-1-oxobutan-2-yl}amino)-2-oxoethoxy]ethoxy}[1,1′-biphenyl]-4-yl)-2,3,9-trimethyl-6H-thieno[3,2-f][1,2,4]triazolo[4,3-a][1,4]diazepin-6-yl]acetate]
- IC50 [1]: 21 nM
- IC50 [2]: 4.3 nM
- IC50 [3]: 0.24 nM
- IC50 [4]: 81 nM
- IC50 [5]: 5.2 nM
- IC50 [6]: 17 nM
- IC50 [7]: 0.36 nM
- IC50 [8]: 4.2 nM
- IC50 [9]: 2.5 nM
- IC50 [10]: 37 nM
- IC50 [11]: 5.7 nM
- IC50 [12]: 0.15 nM
- IC50 [13]: 25 nM
- IC50 ([14]; Homo sapiens, LNCaP, 96 h): 0.68 nM
- IC50 [15]: 2.1 nM
- IC50 [16]: 75 nM
- IC50 [17]: 14 nM
- IC50 [18]: 2.1 nM
- IC50 [19]: 35 nM
- IC50 [20]: 20 nM
- IC50 [21]: 48 nM

- IC50 (BRD4 bromodomain 1): 7400 nM
- IC50 (BRD4-1 (GST)): 550 nM
Compound: (+)-JQ1 [reference compound]
- IC50 ([14]; LNCaP cells, 96 hr culture, WST-8): 19000 nM
